In patent US12384769B2, “Heteroaryl-substituted aminoalkyl azole compounds as pesticides” (Elanco Animal Health GmbH, priority 2019, dated 2025):

Assays:
Assay type in all cases: in vivo
[1] = test system: Rhipicephalus microplus (strain Parkhurst, resistant against synthetic pyrethroids); experiment: Rhipicephalus microplus in-vitro contact test, larval cattle tick (BOOPMI Contact); details: 5 μg/cm^2 (=500 g/ha), after 48 hours, read-out: activity (efficacy, larvae dead or moribund)
How it was run: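 Efficacy, expressed as percentage of larvae dead or moribund, is judged by negative geotactic behaviour 48 h after larvae (20-50 per tube) enter tubes whose inner walls carry a dried acetone film of compound, 5 μg/cm² at 900 ppm. Incubation: horizontal, 27 °C, 85% relative humidity.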

Ctenocephalides felis = Ctenocephalides felis oral test (CTECFE); details: 48 h, 100 ppm in cattle blood, after 2 days
How it was run: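 About 20 adult unfed fleas fed through parafilm on cattle blood held at 37° C and dosed with compound from a DMSO concentrate; flea chamber at room temperature. Percent mortality scored after 2 days.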

Rhipicephalus sanguineus = Rhipicephalus sanguineus in-vitro contact test, adult brown dog ticks (RHIPSA Contact); details: 5 μg/cm^2 (=500 g/ha), after 48 hours, read-out: activity (efficacy, ticks dead or moribund)
How it was run: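 Acetone solution coated onto glass tube walls; 900 ppm gives 5 μg/cm^2. After drying, 5-10 adult ticks per tube kept at room temperature for 48 h, then placed on a 45-50° C heating plate up to 5 min; ticks unable to climb away counted dead or moribund, efficacy as % affected.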

Myzus persicae = Myzus persicae oral test; details: 120 h, after 5 days
Procedure: Solvent: 100 parts by weight acetone
Afterwards the plates are sealed with parafilm through which a mixed population of the green peach aphid (Myzus persicae) can suck on the compound preparation.
After 5 days mortality in % is determined. 100% means all aphids have been killed and 0% means none of the aphids have been killed.

Spodoptera frugiperda = Spodoptera frugiperda spray test; details: in Zea mays, 168 h, read-out: activity (mortality)
How it was run: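 Larvae of fall armyworm placed on dried maize leaf sections previously sprayed with emulsified compound (acetone/DMF solvent, water with 1000 ppm emulsifier). Percent of caterpillars killed recorded on day 7, 0–100% scale.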

[2] = test system: Aedes aegypti strain MONHEIM; experiment: Aedes aegypti test (AEDSAE surface treatment & contact assay); details: 30 minutes exposure, 24 hours after contact, read-out: efficacy (mortality)
Procedure: Aedes aegypti Test (AEDSAE Surface Treatment & Contact Assay)
(§1) Solvent: Aceton+2000 ppm rapeseed oil methyl ester (RME)
(§2) In order to produce a sufficient, active ingredient containing solution it is necessary to solve the test compound in the solvent-mix (acetone at 2 mg/mL/RME 2000 ppm). This solution is pipetted onto a glazed tile and after evaporation of the acetone, adult mosquitoes of the species Aedes aegypti strain MONHEIM are placed onto the dried surface. The exposure time is 30 minutes.
(§3) Mortality in percent (%) is determined 24 hours after contact of the insects to the treated surface. 100% mortality means that all tested insects are dead, whereas 0% means that no insect died.

[3] = test system: Culex quinquefasciatus strain P00; experiment: Culex quinquefasciatus test (CULXFA surface treatment & contact assay); details: 30 minutes exposure, 24 hours after contact, read-out: efficacy (mortality)
Procedure: Culex quinquefasciatus Test (CULXFA Surface Treatment & Contact Assay)
as §1
as §2, with “2 000” for “2000”, “Culex quinquefasciatus” for “Aedes aegypti”, “P00” for “MONHEIM”
as §3

[4] = test system: Musca domestica strain WHO-N; experiment: Musca domestica test (MUSCDO surface treatment & contact assay); details: surface concentration 20 mg/m^2, glazed tile, 30 minutes exposure, 24 hours after contact, read-out: efficacy (mortality)
Procedure: Musca domestica Test (MUSCDO Surface Treatment & Contact Assay)
as §1
as §2, with “flies” for “mosquitoes”, “Musca domestica” for “Aedes aegypti”, “WHO—N” for “MONHEIM”
as §3

[5] = surface concentration 4 mg/m^2, glazed tile
[6] = surface concentration 20 mg/m^2, glazed tile

Question: Which pest or weed control at 5 µg/cm2 [1] does the source give for `C[C@H](Nc1nc2cc(C(F)(F)F)c(Cl)cc2o1)c1ncnn1-c1ncccn1` [Example I-001, 6-chloro-N-{(1S)-1-[1-(pyrimidin-2-yl)-1H-1,2,4-triazol-5-yl]ethyl}-5-(trifluoromethyl)-1,3-benzoxazol-2-amine] here?
Answer: 100%

Question: What about the mortality at 100 ppm (Ctenocephalides felis) of the same compound?
Answer: 100%

Question: What about the pest or weed control at 5 µg/cm2, 5 µg/cm2 (Rhipicephalus sanguineus) of the same compound?
Answer: 100%

Question: And the mortality at 4 ppm (Myzus persicae)?
Answer: 100%

Question: And the mortality at 100 g/ha (Spodoptera frugiperda)?
Answer: 100%

Question: What about the mortality at 500 g/ha (Spodoptera frugiperda) of the same compound?
Answer: 100%

Question: What about the mortality at 4 mg/m2 [2, 5] of the same compound?
Answer: 85 to 100%

Question: And the mortality at 20 mg/m2 [2, 6]?
Answer: 90 to 100%

Question: And the mortality at 4 mg/m2 [3, 5]?
Answer: 90 to 100%

Question: And the mortality at 20 mg/m2 [3, 6]?
Answer: 90 to 100%

Question: What about the mortality at 20 mg/m2 [4] of the same compound?
Answer: 90 to 100%
